Experimental data from patent US7273710B2, “Method for screening MCH receptor antagonist/agonist” (Takeda Pharmaceutical Company Limited, priority 2000, dated 2007).
Positions of bridges follow the written chain, without caps; N, C: chain ends. No end group written: not given here.

Assays:
[1] = target: T1, human SLT (Homo sapiens, UniProt Q969V1); assay: Release of [3H] arachidonic acid metabolite in human SLT-expressing CHO cells; format: cell-based; details: CHO/hSLT cells, FIG. 6
T1 construct: expressed in transfected cells; host or cells: membrane fraction of CHO/hSLT cells (CHO dhfr- transfected with pAKKO-hSLT)

[2] = target: T1, human SLT; assay: FLIPR assay of intracellular Ca ion level in human SLT-expressing CHO cells; format: cell-based; details: CHO/hSLT cells, Fluo 3-AM, FIG. 5
[3] = target: T1, human SLT; assay: Inhibition of forskolin-stimulated cAMP production in human SLT-expressing CHO cells; format: cell-based; details: CHO/hSLT cells, 2 μM forskolin, FIG. 2
[4] = target: T1, human SLT; assay: Receptor binding assay with [125I]-labeled MCH (4-19) on cell membrane fraction of human SLT-expressing CHO cells; details: membrane fractions from CHO/hSLT clones #1, 26, 36, 25° C., 60 minutes, FIG. 3

T1 sequence (Q969V1 whole entry): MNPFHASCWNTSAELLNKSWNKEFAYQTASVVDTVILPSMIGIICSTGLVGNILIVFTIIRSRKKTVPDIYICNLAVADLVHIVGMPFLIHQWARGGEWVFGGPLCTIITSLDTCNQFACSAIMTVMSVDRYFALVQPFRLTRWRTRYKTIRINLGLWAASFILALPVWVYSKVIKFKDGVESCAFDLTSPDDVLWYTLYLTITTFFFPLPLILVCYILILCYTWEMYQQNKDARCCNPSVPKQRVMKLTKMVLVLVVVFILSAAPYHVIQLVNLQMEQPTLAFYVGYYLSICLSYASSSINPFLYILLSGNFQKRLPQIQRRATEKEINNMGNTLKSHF

| Compound | activity to induce the release of the arachidonic acid metabolite [1] | increase of the intracellular Ca ion level [2] | concentration at which the intracellular cAMP was clearly decreased ([3]; 37° C., 30 minutes) | inhibition of cAMP production, concentration dependence [3] | specific binding to cell membrane fraction [4] |
| --- | --- | --- | --- | --- | --- |
| CSCC[C@@H]1NC(=O)[C@@H](NC(=O)[C@H](CCCNC(=N)N)NC(=O)[C@H](CC(C)C)NC(=O)[C@H](CCSC)NC(=O)[C@H](CC(=O)O)NC(=O)[C@H](Cc2ccccc2)NC(=O)[C@@H](N)CC(=O)O)CSSC[C@@H](C(=O)N[C@@H](Cc2c[nH]c3ccccc23)C(=O)N[C@@H](CCC(N)=O)C(=O)N[C@H](C(=O)O)C(C)C)NC(=O)[C@@H]2CCCN2C(=O)[C@H](CCCNC(=N)N)NC(=O)[C@H](Cc2ccc(O)cc2)NC(=O)[C@H](C(C)C)NC(=O)[C@H](CCCNC(=N)N)NC(=O)CNC(=O)[C@H](CC(C)C)NC1=O [MCH, Asp-Phe-Asp-Met-Leu-Arg-Cys-Met-Leu-Gly-Arg-Val-Tyr-Arg-Pro-Cys-Trp-Gln-V al] | in a does-dependent manner | increases the intracellular Ca ion level in human SLT-expressing CHO cells in a manner dependent on the concentration | 30 pM | decreased in a dose-dependent manner | – |
| [^125I]-[N-3-(4-hydroxy-3-iodophenyl)propionyl)-Met^4]-MCH (4-19) ({3‑(4-hydroxy-3-(125I)iodophenyl)propionyl}-MLRCMLGRVYRPCWQV; disulfide 4-13) [[^125I]-labeled MCH (4-19)] | – | – | – | – | dependent on the concentration of membrane fraction was observed |
